Results: ChEMBL document CHEMBL5625215, “Antiproliferative activity of meso-substituted BODIPY photocages: Effect of electrophiles vs singlet oxygen” (Eur J Med Chem, 2023)
Activity calls are given as the source filed them. No cut-off for these calls is given here.

What was measured:
[1] = Induction of singlet oxygen production in CH3CN assessed as decrease in fluorescence intensity at 450 nm under photoirradiation with visible light and measured after 45 sec by DPBF based assay relative to control; format: functional; design: scale not given: the % may be the effect or the level left
[2] = Fluorescence property of compound in CH3CN assessed as fluorescence quantum yield by spectrofluorometric analysis; format: physicochemical
[3] = Drug localization in nuclear membrane of human NCI-H460 cells incubated for 30 mins by Hoechst 33342 staining based confocal microscopic analysis; format: ADME, cell membranes; conditions: nci-h460, 0.5 h
[4] = Induction of singlet oxygen production in CH3CN assessed as decrease in fluorescence intensity at 450 nm under photoirradiation with visible light and measured after 30 sec by DPBF based assay relative to control; format: functional; design: scale not given: the % may be the effect or the level left
[5] = Drug localization in cytoplasm of human NCI-H460 cells incubated for 30 mins by Hoechst 33342 staining based confocal microscopic analysis; format: ADME, subcellular; conditions: nci-h460, 0.5 h
HCT-116 [6] = assay: Antiproliferative activity against human HCT-116 cells assessed as inhibition of cell growth incubated for 72 hrs under dark condition by MTT assay; format: functional, cell-based; conditions: HCT-116, 72 h
[7] = Absorption property of compound in CH3CN assessed as maximal molar absorption coefficient by UV-vis spectrophotometer; format: physicochemical
MCF7 [8] = assay: Antiproliferative activity against human MCF7 cells assessed as inhibition of cell growth incubated for 72 hrs under photoirradiation with 6 cool white lamps for 15 mins at 4,28 and 52 hrs after compound addition by MTT assay; format: functional, cell-based; conditions: MCF7, light or radiation study
NCI-H460 [9] = assay: Antiproliferative activity against human NCI-H460 cells assessed as inhibition of cell growth incubated for 72 hrs under photoirradiation with 6 cool white lamps for 15 mins at 4,28 and 52 hrs after compound addition by MTT assay; format: functional, cell-based; conditions: NCI-H460, light or radiation study
[10] = Cytotoxicity against HEK293T cells assessed as inhibition of cell growth incubated for 72 hrs under photoirradiation with 6 cool white lamps for 15 mins at 4,28 and 52 hrs after compound addition by MTT assay; format: toxicity, cell-based, HEK-293T; conditions: human
[11] = Cytotoxicity against human HaCaT cells assessed as inhibition of cell growth incubated for 72 hrs under photoirradiation with 6 cool white lamps for 15 mins at 4,28 and 52 hrs after compound addition by MTT assay; format: toxicity, cell-based
[12] = Induction of singlet oxygen production in CH3CN assessed as singlet oxygen quantum yield at 450 nm under photoirradiation with visible light and measured after 15 to 60 sec by DPBF based assay; format: functional; conditions: time 15-60 sec
HEK-293T [13] = assay: Induction of apoptosis in HEK293T cells assessed as cell death irradiated with visible light by Hoechst 33342 staining based confocal microscopic analysis; format: toxicity; conditions: human
[14] = Drug uptake in HEK293T cells by fluorescence microscopic analysis; format: ADME, cell-based; conditions: human, hek-293t
MCF7 [15] = assay: Antiproliferative activity against human MCF7 cells assessed as inhibition of cell growth incubated for 72 hrs under dark condition by MTT assay; format: functional, cell-based; conditions: MCF7, 72 h
[16] = Induction of singlet oxygen production in CH3CN assessed as decrease in fluorescence intensity at 450 nm under photoirradiation with visible light and measured after 15 sec by DPBF based assay relative to control; format: functional; design: scale not given: the % may be the effect or the level left
NCI-H460 [17] = assay: Induction of cell death in human NCI-H460 cells assessed as membrane blebbing preincubated for 30 mins followed by light irradiation for 15 to 30 mins by Hoechst 33342 staining based confocal microscopic analysis; format: functional; conditions: time 45-60 min
NCI-H460 [18] = assay: Induction of cell death in human NCI-H460 cells assessed as shrinkage of nuclear volume preincubated for 30 mins followed by light irradiation for 15 to 30 mins by Hoechst 33342 staining based confocal microscopic analysis; format: functional; conditions: time 45-60 min
[19] = Absorption property of compound in CH3CN assessed as maximal wavelength by UV-vis spectrophotometer; format: physicochemical
HEK-293T [20] = assay: Induction of apoptosis in HEK293T cells assessed as dye bleaching irradiated with visible light by Hoechst 33342 staining based confocal microscopic analysis; format: toxicity, cell-based; conditions: human
NCI-H460 [21] = assay: Induction of cell death in human NCI-H460 cells assessed as dye bleaching preincubated for 30 mins followed by light irradiation for 15 to 30 mins by Hoechst 33342 staining based confocal microscopic analysis; format: functional; conditions: time 45-60 min
[22] = Cytotoxicity against human HaCaT cells assessed as inhibition of cell growth incubated for 72 hrs under dark condition by MTT assay; format: toxicity, cell-based
HCT-116 [23] = assay: Antiproliferative activity against human HCT-116 cells assessed as inhibition of cell growth incubated for 72 hrs under photoirradiation with 6 cool white lamps for 15 mins at 4,28 and 52 hrs after compound addition by MTT assay; format: functional, cell-based; conditions: HCT-116, light or radiation study
[24] = Drug localization in lipid droplets of human NCI-H460 cells incubated for 30 mins by Hoechst 33342 staining based confocal microscopic analysis; format: ADME, subcellular, Lipid droplet; conditions: nci-h460, 0.5 h
[25] = Drug localization in golgi body of human NCI-H460 cells incubated for 30 mins by Hoechst 33342 staining based confocal microscopic analysis; format: ADME, subcellular; conditions: nci-h460, 0.5 h
[26] = Cytotoxicity against HEK293T cells assessed as inhibition of cell growth incubated for 72 hrs under dark condition by MTT assay; format: toxicity, cell-based, HEK-293T; conditions: human
NCI-H460 [27] = assay: Induction of cell death in human NCI-H460 cells assessed as cell shrinkage preincubated for 30 mins followed by light irradiation for 15 to 30 mins by Hoechst 33342 staining based confocal microscopic analysis; format: functional; conditions: time 45-60 min
[28] = Drug localization in endoplasmic reticulum of human NCI-H460 cells incubated for 30 mins by Hoechst 33342 staining based confocal microscopic analysis; format: ADME, subcellular; conditions: nci-h460, 0.5 h
NCI-H460 [29] = assay: Antiproliferative activity against human NCI-H460 cells assessed as inhibition of cell growth incubated for 72 hrs under dark condition by MTT assay; format: functional, cell-based; conditions: NCI-H460, 72 h
[30] = Emission property of compound in CH3CN assessed as maximal wavelength by […]; format: physicochemical
HCT-116 [31] = assay: Induction of ROS generation in human HCT-116 cells at 5 uM incubated for 1 hrs under dark condition by DCFH-DA staining based fluorescence analysis; format: functional, cell-based
[32] = Induction of singlet oxygen production in CH3CN assessed as decrease in fluorescence intensity at 450 nm under photoirradiation with visible light and measured after 1 min by DPBF based assay relative to control; format: functional; design: scale not given: the % may be the effect or the level left
HCT-116 [33] = assay: Induction of ROS generation in human HCT-116 cells assessed as increase in oxidative stress at 5 uM preincubated with compound for 1 hrs followed by photoirradiation with 6 cool white lamps by DCFH-DA staining based fluorescence analysis; format: functional, cell-based
[34] = Induction of singlet oxygen production in CH3CN assessed as decrease in fluorescence intensity at 455 nm under photoirradiation with visible light and measured after 15 sec by DPBF based assay relative to control; format: functional; design: scale not given: the % may be the effect or the level left
[35] = Induction of singlet oxygen production in CH3CN assessed as decrease in fluorescence intensity at 455 nm under photoirradiation with visible light and measured after 30 sec by DPBF based assay relative to control; format: functional; design: scale not given: the % may be the effect or the level left
[36] = Induction of singlet oxygen production in CH3CN assessed as singlet oxygen quantum yield; format: functional
[37] = Induction of singlet oxygen production in CH3CN assessed as decrease in fluorescence intensity at 455 nm under photoirradiation with visible light and measured after 1 min by DPBF based assay relative to control; format: functional; design: scale not given: the % may be the effect or the level left
[38] = Induction of singlet oxygen production in CH3CN assessed as decrease in fluorescence intensity at 455 nm under photoirradiation with visible light and measured after 45 sec by DPBF based assay relative to control; format: functional; design: scale not given: the % may be the effect or the level left

Structure (SMILES) | Activity [1] [%] | Activity [2] | Drug uptake [3] | Activity [4] [%] | Drug uptake [5] | IC50 (HCT-116 [6]) [nM] | Activity [7] [M⁻¹ cm⁻¹] | IC50 (MCF7 [8]) [nM] | IC50 (NCI-H460 [9]) [nM] | IC50 at 72 h [10] [nM] | IC50 at 72 h [11] [nM] | Activity [12] | Activity (HEK-293T [13]) | Drug uptake [14] | IC50 (MCF7 [15]) [nM] | Activity [16] [%] | Activity [19] [nm] | IC50 (HCT-116 [23]) [nM] | IC50 (NCI-H460 [29]) [nM] | Activity [30] [nm] | also measured
COc1cccc(COC(C)=O)c1OCC1=C2C(C)=C(Br)C(C)=[N+]2[B-](C)(C)n2c(C)c(Br)c(C)c21 | 99.9 | 0.034 | Active | 91.8 | Active | ≥ 100000 | 59622 | 150 | 230 | 300 | 300 | 0.73 | Toxic | Active | ≥ 100000 | 63 | 530 | 190 | > 100000 | 559 | Activity (NCI-H460 [17]): Active; Activity (NCI-H460 [18]): Active; Activity (HEK-293T [20]): Toxic; Activity (NCI-H460 [21]): Active; IC50 at 72 h [22]: > 100000 nM; Drug uptake [24]: Active; Drug uptake [25]: Active; IC50 at 72 h [26]: ≥ 100000 nM; Activity (NCI-H460 [27]): Active; Drug uptake [28]: Active
CC(=O)OCc1ccccc1OCC1=C2C(C)=C(Br)C(C)=[N+]2[B-](C)(C)n2c(C)c(Br)c(C)c21 |  | 0.043 | Active |  | Active | 25000 | 37724 | 170 | 190 |  |  |  | Toxic | Active | 18000 |  | 531 | 160 | 33000 | 558 | Activity (NCI-H460 [17]): Active; Activity (NCI-H460 [18]): Active; Activity (HEK-293T [20]): Toxic; Activity (NCI-H460 [21]): Active; Drug uptake [24]: Active; Drug uptake [25]: Active; Activity (NCI-H460 [27]): Active; Drug uptake [28]: Active
CC(=O)OCc1ccccc1OCC1=C2C(C)=CC(C)=[N+]2[B-](C)(C)n2c(C)cc(C)c21 | 21.1 | 0.28 |  | 12.9 |  | 33000 | 146706 | 200 | 190 |  |  | 0.1 |  |  | 27000 | 4.9 | 510 | 210 | 83000 | 521 | Activity (HCT-116 [31]): inactive; Activity [32]: 32.3%; Activity (HCT-116 [33]): Active
COc1cccc(COC(C)=O)c1OCC1=C2C(C)=CC(C)=[N+]2[B-](C)(C)n2c(C)cc(C)c21 | 14.9 | 0.27 |  | 6.9 |  | ≥ 100000 | 75178 | 200 | 260 | 1300 | 600 | 0.1 |  |  | 47000 | 1 | 510 | 340 | ≥ 100000 | 522 | Activity (HCT-116 [31]): inactive; IC50 at 72 h [22]: > 100000 nM; Activity [32]: 20.2%; Activity (HCT-116 [33]): Active; IC50 at 72 h [26]: ≥ 100000 nM
C1=Cc2nc1c(-c1ccccc1)c1ccc([nH]1)c(-c1ccccc1)c1nc(c(-c3ccccc3)c3ccc([nH]3)c2-c2ccccc2)C=C1 |  |  |  |  |  |  |  |  |  |  |  |  |  |  |  |  |  |  |  |  | Activity [34]: 43.3%; Activity [35]: 63%; Activity [36]: 0.5; Activity [37]: 95.1%; Activity [38]: 84.2%
